Data on two compounds can be found in patent publication US20120245121A1, “METHODS FOR IMPROVING BONE HEALTH IN INFANTS USING LONG CHAIN POLYUNSATURATED FATTY ACIDS” (ABBOTT LABORATORIES, priority 2011, published 2012).

Holding throughout (assay type): in vivo, Sprague-Dawley rats
The subject of test [1] is rat offspring. The test can be described thus: pDEXA bone mineral density (BMD) and bone mineral content (BMC) of rat offspring after maternal diet supplementation. The conditions noted are these: for lumbar vertebra BMC with respect to Control group / lumbar vertebra BMD with respect to Control group: adolescence. How it is done: Fifty 10-week-old pregnant Sprague-Dawley rats at the eleventh day of gestation (Charles Rivers Laboratories, Orleans Cedex, France) are housed under standardized environmental conditions (22° C., relative humidity of 50%, artificial lighting on for 12 hours/day) and are given free access to deionized water during the test period. The rats are randomly divided into five groups of feeding (n=10/group): (1) Control Group (“Control”), who receives a standard purified rodent diet (SPRD); […] (3) Prebiotic group (“Prebiotic”), who receives the SPRD containing 7.5% of the total carbohydrate as inulin-type fructans (Synergy-1®, Orafti, Belgium); […] During their suckling period, the pups receive only the dam's milk. […] Sacrifices of rat pups are carried out at birth, weaning and at the end of the adolescence period. The whole bone mineral density (BMD) and bone mineral content (BMC) of the skeleton are measured at birth and at weaning by using a pDEXA densitometer (Norland Corp., Fort Atkinson, Wis., USA). In adolescent offspring, the determination of BMC and BMD are analyzed in isolated bones (femur, tibia and vertebrae). Determination of the trabecular architecture parameters (trabecular thickness, separation and number), bone length and bone volume fraction (BV/TV) is analyzed by Micro-computed tomography (micro-CT). Micro-CT analysis is carried out by the Bone & Joint Research Group (University of Southampton, UK) and cortical parameters are performed by SCANCO Medical AG (Brüttisellen, Switzerland). DEXA scan is a technique used in the clinical practice for the analysis of bone health. Two main bone properties can be measured by this technique: Bone Mineral Content (BMC) and areal Bone Mineral Density (BMD). BMC determines the mass of mineral present in the whole body or in the selected skeletal region. BMC changes reflect the result of the metabolic “mass” balance between bone formation and bone destruction. BMC represented relative to the projected bone area refers to BMD. […] The manufacturer's software for research in small animals calculates BMC and BMD for the isolated bone. Femur is measured from the femoral neck to the knee joint. Tibia is measured from the knee joint to the joint between tibia and calcaneus, also including fibula. […] Results are expressed as mean±SEM, and the probability level at which the differences are considered significant is set at p<0.05. One-way ANOVA is used to evaluate differences attributable to the diet in the different markers, previously testing the homogeneity of variances by Levene's. A posteriori post hoc tests are carried out by the Dunnet test.

The subject of test [2] is rat offspring. The test is described as follows: Micro-CT vertebra cortical architecture of rat offspring after maternal diet supplementation. The following applies: adolescence. How it is done: Fifty 10-week-old pregnant Sprague-Dawley rats at the eleventh day of gestation (Charles Rivers Laboratories, Orleans Cedex, France) are housed under standardized environmental conditions (22° C., relative humidity of 50%, artificial lighting on for 12 hours/day) and are given free access to deionized water during the test period. The rats are randomly divided into five groups of feeding (n=10/group): (1) Control Group (“Control”), who receives a standard purified rodent diet (SPRD); […] (3) Prebiotic group (“Prebiotic”), who receives the SPRD containing 7.5% of the total carbohydrate as inulin-type fructans (Synergy-1®, Orafti, Belgium); […] During their suckling period, the pups receive only the dam's milk. […] Sacrifices of rat pups are carried out at birth, weaning and at the end of the adolescence period. The whole bone mineral density (BMD) and bone mineral content (BMC) of the skeleton are measured at birth and at weaning by using a pDEXA densitometer (Norland Corp., Fort Atkinson, Wis., USA). In adolescent offspring, the determination of BMC and BMD are analyzed in isolated bones (femur, tibia and vertebrae). Determination of the trabecular architecture parameters (trabecular thickness, separation and number), bone length and bone volume fraction (BV/TV) is analyzed by Micro-computed tomography (micro-CT). Micro-CT analysis is carried out by the Bone & Joint Research Group (University of Southampton, UK) and cortical parameters are performed by SCANCO Medical AG (Brüttisellen, Switzerland). In the present Example, femoral, tibia and vertebra cancellous bones are assessed using Metris (XTek) Benchtop 160Xi CT scanner (University of Southampton) and vertebra cortical bone is assessed using MicroCT-40 computed tomography system (Scanco Medical, Basserdorf, Switzerland). […] Micro-CT analysis also allows for the determination of various quality properties of the cortical bone. The bone fragility is influenced not only by the architecture but also by the tissue “quality”. The strength of a bone as an organ depends on the material properties of bone as a tissue. Stiffness, or the resistance of the whole bone to deformation by a load, is a key material property and requires a destructive mechanical technique if measurements are done in vivo. The non-destructive analysis of the volumetric bone mineral density of cortical bone (cortical vBMD) by micro CT has an approximately linear relationship with the stiffness of the cortical bone. Cortical thickness (C.Th) is one of the variables that helps to evaluate the modeling-derived changes provoked by growth. The cortical porosity (C.Sp) reflects the intracortical remodeling in the bone. […] Results are expressed as mean±SEM, and the probability level at which the differences are considered significant is set at p<0.05. […]

Test [3] concerns rat offspring. The test can be described thus: Micro-CT trabecular architecture and bone length of rat offspring after maternal diet supplementation. How it is done:
Fifty 10-week-old pregnant Sprague-Dawley rats at the eleventh day of gestation (Charles Rivers Laboratories, Orleans Cedex, France) are housed under standardized environmental conditions (22° C., relative humidity of 50%, artificial lighting on for 12 hours/day) and are given free access to deionized water during the test period. The rats are randomly divided into five groups of feeding (n=10/group): (1) Control Group (“Control”), who receives a standard purified rodent diet (SPRD); […] (3) Prebiotic group (“Prebiotic”), who receives the SPRD containing 7.5% of the total carbohydrate as inulin-type fructans (Synergy-1®, Orafti, Belgium); […] During their suckling period, the pups receive only the dam's milk. […] Sacrifices of rat pups are carried out at birth, weaning and at the end of the adolescence period. The whole bone mineral density (BMD) and bone mineral content (BMC) of the skeleton are measured at birth and at weaning by using a pDEXA densitometer (Norland Corp., Fort Atkinson, Wis., USA). In adolescent offspring, the determination of BMC and BMD are analyzed in isolated bones (femur, tibia and vertebrae). Determination of the trabecular architecture parameters (trabecular thickness, separation and number), bone length and bone volume fraction (BV/TV) is analyzed by Micro-computed tomography (micro-CT). Micro-CT analysis is carried out by the Bone & Joint Research Group (University of Southampton, UK) and cortical parameters are performed by SCANCO Medical AG (Brüttisellen, Switzerland). Micro-computed tomography (micro-CT) is a technique for the nondestructive assessment and analysis of the three-dimensional trabecular and cortical bone structural properties. Scanning with micro-CT can be achieved at resolutions as low as 5 μm, allowing for the determination of porosities and subtle modeling and remodeling events of the bone tissue. Furthermore, true three-dimensional image reconstructions permit the assessment of bone microarchitecture as a three dimensional structure, providing critical information to images collected through histomorphometry. In the present Example, femoral, tibia and vertebra cancellous bones are assessed using Metris (XTek) Benchtop 160Xi CT scanner (University of Southampton) and vertebra cortical bone is assessed using MicroCT-40 computed tomography system (Scanco Medical, Basserdorf, Switzerland). […] Results are expressed as mean±SEM, and the probability level at which the differences are considered significant is set at p<0.05. One-way ANOVA is used to evaluate differences attributable to the diet in the different markers, previously testing the homogeneity of variances by Levene's. A posteriori post hoc tests are carried out by the Dunnet test.

[4] abbreviates: at delivery, appendicular bones.

With `O=C([O-])[O-].[Ca+2]` [Calcium, calcium carbonate], in test [1], the “lumbar vertebra BMC with respect to Control group” value is “no differences” and the “lumbar vertebra BMD with respect to Control group” value is “no differences”. Further, in test [2], the vertebra cortical porosity entry is recorded as “decrease”, the “vertebra cortical vBMD” value is reported as “increase” and the vertebrae cortical thickness result is on record as “without significantly affecting”. In addition, in test [3] (adolescence), the “vertebra BV/TV enhanced in comparison with Control group” value is 22%, the “vertebra trabecular separation respective to Control group” value is given as “significant decrease” and the “vertebra trabecular thickness enhanced in comparison with Control group” value is 17%. In test [3] (setting [4]), the “trabecular number of femur and tibia vs Control group” value is listed as “greater”; the “trabecular thickness of femur and tibia vs Control group” value is “lower”. Further, the “femur length represented versus body weight” value in test [3] (at delivery, no difference to Control group) was 0.572±0.04. The “trabecular separation of femur and tibia vs Control group” value in test [3] (at delivery, statistical differences not achieved) is given as “decrease”. In addition, in test [3] (at weaning), the “increase in vertebra trabecular thickness respective to Control group” value was around 30%, the “vertebra BV/TV ratio respective to Control group” value was “statistically different” and the “vertebra trabecular separation respective to Control group” value was “statistically different”.
Regarding Vitamin D, in test [1], the “lumbar vertebra BMC with respect to Control group” value is listed as “no differences” and the “lumbar vertebra BMD with respect to Control group” value is listed as “no differences”. For the same compound, the “whole body BMC relative to Control group” value in test [1] (at weaning) was “lower”. Moreover, the vertebra cortical features result in test [2] was “does not show any improvement”. Further, in test [3] (adolescence), the “vertebra structural parameters (BV/TV, trabecular thickness)” value is reported as “No effect”.
